Source: patent US20260224613A1, “Use Of Inorganic Nitrate For Preventing Restenosis And/Or Device Thrombosis” (Queen Mary University of London, priority 2023, published 2026)

Assays:
[1] = system: Human Coronary Arterial Endothelial Cells (HCAEC); conditions: NaNO2 3 μM; hypoxia 0.1% O2 24 h, re-oxygenation 8, 24 and 48 h; FIG. 2
Experimental: (§1) FIG. 2—Effects of NaNO2 on cell proliferation of Human Coronary Arterial Endothelial Cells (HCAEC) and Human Coronary Arterial Smooth Muscle Cells (HCSMC) exposed to Ischaemia/Reperfusion injury. Cell Count of HCAEC and HCASMC respectively under hypoxia (0.1% O2, 24 h) and re-oxygenation (normoxia, 8, 24 and 48 h post ischaemia)) in the absence and presence of NaNO2 3 μM. n=7/group for HCAEC and n=5/group for HCASMC. Results are expressed as % changes of the respective matched normoxia controls. Data represent mean±SEM of the number of independent experiments performed as indicated above. Statistical significance determined using two-way ANOVA followed by post-test comparing response at each timepoint between treatments determined using Sidak's multiple comparison test.

[2] = system: Human Coronary Arterial Smooth Muscle Cells (HCSMC); conditions: NaNO2 3 μM; hypoxia 0.1% O2 24 h, re-oxygenation 8, 24 and 48 h; FIG. 2
Experimental: as §1

Structure (SMILES): O=N[O-].[Na+] [nitrite, NaNO2]
- endothelial cell growth following an ischaemia-reperfusion insult [1]: improves
- growth of vascular smooth muscle cells following an ischaemia-reperfusion insult [2]: suppressing
